{"source": "ChEMBL document CHEMBL1629562", "about": "“Activity of indenoisoquinolines against African trypanosomes” (Antimicrob Agents Chemother, 2009)", "key": {"[1]": {"test_system": "Trypanosoma brucei brucei", "assay": "Trypanocidal activity against Trypanosoma brucei brucei 427 bloodstream forms infected in mouse L1210 cells after 48 hrs", "format": "functional, organism-based", "conditions": "Trypanosoma brucei, 427, L1210, 48 h"}, "[2]": {"test_system": "Trypanosoma brucei brucei", "assay": "Inhibition of Trypanosoma brucei brucei 427 bloodstream forms topoisomerase 1B in assessed as formation of enzyme-DNA cleavable complex at 5 uM"}, "[3]": {"test_system": "Trypanosoma brucei brucei", "assay": "Inhibition of Trypanosoma brucei brucei 427 bloodstream form DNA synthesis assessed as inhibition of [3H]thymidine incorporation at 5 uM by liquid scintillation counting", "format": "functional"}, "[4]": {"assay": "Therapeutic index, EC50 for mouse L1210 cells to EC50 for bloodstream-form Trypanosoma brucei brucei 427", "format": "cell-based", "conditions": "read-out: Ratio EC50"}, "L1210": {"test_system": "L1210", "assay": "Cytotoxicity against mouse L1210 cells", "format": "cell-based"}, "[5]": {"test_system": "Trypanosoma brucei brucei", "assay": "Antitrypanosomal activity against Trypanosoma brucei brucei 427 bloodstream forms infected in CD1 mouse assessed as reduction in parasite load at 50 mg/kg, ip after 4 days", "format": "functional, organism-based", "parameters": "dose 50 mg/kg"}, "[6]": {"test_system": "Trypanosoma brucei brucei", "assay": "Inhibition of Trypanosoma brucei brucei 427 bloodstream form DNA synthesis assessed as inhibition of [3H]thymidine incorporation at 10 uM by liquid scintillation counting", "format": "functional"}, "[7]": {"test_system": "Trypanosoma brucei brucei", "assay": "Inhibition of Trypanosoma brucei brucei 427 bloodstream forms topoisomerase 1B in assessed as formation of enzyme-DNA cleavable complex at 10 uM"}}, "note": "Activity calls are given as the source filed them. The calls are words filed in the database; no cut-off is given here."}
{"compound": "COc1ccc2c(c1)C(=O)c1c-2n(CCCN)c(=O)c2cc([N+](=O)[O-])ccc12", "values": [{"measurement": "EC50", "setting": "[1]", "value": 60, "unit": "nM"}]}
{"compound": "COc1cc2c3c(n(CCCNCCCNCCCNCCCN)c(=O)c2cc1OC)-c1cc2c(cc1C3=O)OCO2", "values": [{"measurement": "inhibition", "setting": "[2]", "value": 10, "unit": "%"}, {"measurement": "inhibition at 5 µM", "setting": "[3]", "value": 34, "unit": "%"}, {"measurement": "selectivity ratio", "setting": "[4]", "value": 1.9}, {"measurement": "EC50", "setting": "L1210", "value": 510, "unit": "nM"}, {"measurement": "EC50", "setting": "[1]", "value": 1500, "unit": "nM"}]}
{"compound": "O=C1c2ccccc2-c2c1c1ccccc1c(=O)n2CCCn1ccnc1", "values": [{"measurement": "EC50", "setting": "[1]", "value": 4200, "unit": "nM"}]}
{"compound": "NCCCn1c2c(c3ccc(Br)cc3c1=O)C(=O)c1cc3c(cc1-2)OCO3", "values": [{"measurement": "EC50", "setting": "[1]", "value": 160, "unit": "nM"}]}
{"compound": "COc1cc2c3c(n(CCCN)c(=O)c2cc1OC)-c1ccc(C#N)cc1C3=O", "values": [{"measurement": "inhibition", "setting": "[2]", "value": 3, "unit": "%"}, {"measurement": "inhibition at 5 µM", "setting": "[3]", "value": 69, "unit": "%"}, {"measurement": "selectivity ratio", "setting": "[4]", "value": 2.8}, {"measurement": "EC50", "setting": "L1210", "value": 970, "unit": "nM"}, {"measurement": "EC50", "setting": "[1]", "value": 350, "unit": "nM"}]}
{"compound": "COc1ccc2c(c1)C(=O)c1c-2n(CCCN)c(=O)c2cc(OC)c(OC)cc12", "values": [{"measurement": "inhibition", "setting": "[5]", "value": "Active"}, {"measurement": "inhibition", "setting": "[2]", "value": 3, "unit": "%"}, {"measurement": "inhibition at 5 µM", "setting": "[3]", "value": 68, "unit": "%"}, {"measurement": "selectivity ratio", "setting": "[4]", "value": 5.6}, {"measurement": "EC50", "setting": "L1210", "value": 4300, "unit": "nM"}, {"measurement": "EC50", "setting": "[1]", "value": 50, "unit": "nM"}]}
{"compound": "COc1cc2c3c(n(CCCN)c(=O)c2cc1OC)-c1ccccc1C3=O", "values": [{"measurement": "inhibition", "setting": "[2]", "value": 4, "unit": "%"}, {"measurement": "inhibition at 5 µM", "setting": "[3]", "value": 67, "unit": "%"}, {"measurement": "selectivity ratio", "setting": "[4]", "value": 4.3}, {"measurement": "EC50", "setting": "L1210", "value": 2800, "unit": "nM"}, {"measurement": "EC50", "setting": "[1]", "value": 130, "unit": "nM"}]}
{"compound": "NCCCn1c2c(c3ccc([N+](=O)[O-])cc3c1=O)C(=O)c1cc(F)ccc1-2", "values": [{"measurement": "EC50", "setting": "[1]", "value": 80, "unit": "nM"}]}
{"compound": "COc1cc2c3c(n(CCCNCCNCCCN)c(=O)c2cc1OC)-c1cc2c(cc1C3=O)OCO2", "values": [{"measurement": "inhibition", "setting": "[2]", "value": 11, "unit": "%"}, {"measurement": "inhibition at 5 µM", "setting": "[3]", "value": 44, "unit": "%"}, {"measurement": "selectivity ratio", "setting": "[4]", "value": 4}, {"measurement": "EC50", "setting": "L1210", "value": 280, "unit": "nM"}, {"measurement": "EC50", "setting": "[1]", "value": 650, "unit": "nM"}]}
{"compound": "COc1cc2c3c(n(CCCNCCCCN)c(=O)c2cc1OC)-c1cc2c(cc1C3=O)OCO2", "values": [{"measurement": "inhibition", "setting": "[2]", "value": 7, "unit": "%"}, {"measurement": "inhibition at 5 µM", "setting": "[3]", "value": 56, "unit": "%"}, {"measurement": "selectivity ratio", "setting": "[4]", "value": 4.3}, {"measurement": "EC50", "setting": "L1210", "value": 250, "unit": "nM"}, {"measurement": "EC50", "setting": "[1]", "value": 990, "unit": "nM"}]}
{"compound": "COc1ccc2c(c1)C(=O)c1c-2n(CCCN)c(=O)c2ccccc12", "values": [{"measurement": "EC50", "setting": "[1]", "value": 140, "unit": "nM"}]}
{"compound": "COc1cc2c3c(n(CCCN)c(=O)c2cc1OC)-c1cc2c(cc1C3=O)OCO2", "values": [{"measurement": "inhibition", "setting": "[2]", "value": 4, "unit": "%"}, {"measurement": "inhibition at 5 µM", "setting": "[3]", "value": 61, "unit": "%"}, {"measurement": "selectivity ratio", "setting": "[4]", "value": 2.1}, {"measurement": "EC50", "setting": "L1210", "value": 420, "unit": "nM"}, {"measurement": "EC50", "setting": "[1]", "value": 120, "unit": "nM"}]}
{"compound": "CC[C@@]1(O)C(=O)OCc2c1cc1n(c2=O)Cc2cc3ccccc3nc2-1", "note": "[CAMPTOTHECIN]", "values": [{"measurement": "inhibition at 10 µM", "setting": "[6]", "value": 27, "unit": "%"}, {"measurement": "inhibition", "setting": "[7]", "value": 61, "unit": "%"}]}
{"compound": "NCCCn1c2c(c3ccc([N+](=O)[O-])cc3c1=O)C(=O)c1cc3c(cc1-2)OCO3", "values": [{"measurement": "EC50", "setting": "[1]", "value": 50, "unit": "nM"}]}
{"compound": "NCCCn1c2c(c3ccc([N+](=O)[O-])cc3c1=O)C(=O)c1ccccc1-2", "values": [{"measurement": "EC50", "setting": "[1]", "value": 140, "unit": "nM"}]}
{"compound": "COC(=O)c1ccc2c(c1)C(=O)c1c-2n(CCCN)c(=O)c2cc(OC)c(OC)cc12", "values": [{"measurement": "inhibition", "setting": "[2]", "value": 12, "unit": "%"}, {"measurement": "inhibition at 5 µM", "setting": "[3]", "value": 66, "unit": "%"}, {"measurement": "selectivity ratio", "setting": "[4]", "value": 2.5}, {"measurement": "EC50", "setting": "L1210", "value": 2600, "unit": "nM"}, {"measurement": "EC50", "setting": "[1]", "value": 170, "unit": "nM"}]}
{"compound": "NCCCn1c2c(c3ccccc3c1=O)C(=O)c1ccccc1-2", "values": [{"measurement": "EC50", "setting": "[1]", "value": 380, "unit": "nM"}]}
{"compound": "COc1cc2c3c(n(CCCn4ccnc4)c(=O)c2cc1OC)-c1cc2c(cc1C3=O)OCO2", "note": "[INDIMITECAN]", "values": [{"measurement": "EC50", "setting": "[1]", "value": 60, "unit": "nM"}]}
{"compound": "O=C1c2ccccc2-c2c1c1ccc([N+](=O)[O-])cc1c(=O)n2CCCn1ccnc1", "values": [{"measurement": "EC50", "setting": "[1]", "value": 200, "unit": "nM"}]}
{"compound": "NCCCn1c2c(c3ccccc3c1=O)C(=O)c1cc3c(cc1-2)OCO3", "values": [{"measurement": "EC50", "setting": "[1]", "value": 60, "unit": "nM"}]}
{"compound": "COc1cc2c3c(n(CCCn4ccnc4)c(=O)c2cc1OC)-c1ccccc1C3=O", "values": [{"measurement": "EC50", "setting": "[1]", "value": 350, "unit": "nM"}]}
{"compound": "COc1cc2c3c(n(CCCNCCCNCCN)c(=O)c2cc1OC)-c1cc2c(cc1C3=O)OCO2", "values": [{"measurement": "EC50", "setting": "[1]", "value": 970, "unit": "nM"}]}
{"compound": "COc1cc2c(cc1OC)-c1c(c3ccc([N+](=O)[O-])cc3c(=O)n1CCCN)C2=O", "values": [{"measurement": "EC50", "setting": "[1]", "value": 140, "unit": "nM"}]}
